Measured values taken from patent publication US20150351390A1, “COMPOSITIONS AND METHODS FOR AUXIN-ANALOG CONJUGATION” (PIONEER HI-BRED INTERNATIONAL, INC., priority 2012, published 2015).

How the values were obtained:
[1] = system: Soybean seeds; assay: Phytotoxicity evaluation during soybean germination; type: in vivo; details: 1 μM in germination media, 10 days
Description: To evaluate the effect of synthetic auxin conjugates in plants, 2,4-D-Asp, 2,4-D-Glu, dicamba-Asp, and dicamba-Glu were synthesized (Irvine Chemistry Laboratory, Anaheim, Calif.) and tested for auxin effects during soybean germination.
Asp and Glu conjugates of 2,4-D and dicamba were dissolved in a small quantity of Na2CO3 and ethanol, respectively, diluted in ddH2O to obtain 10 mM stock solution, and filter sterilized. Soybean seeds of a Pioneer elite germplasm were sterilized with chlorine gas as following: a) two layers of seeds were placed in a 100×25 mm plastic Petri dish; b) in an exhaust fume hood, seeds were placed into a glass desiccator with a 250 mL beaker containing 100 mL bleach (5% NaOC1) and 3.5 mL 12N HCl was slowly added to the beaker; c) the lid was sealed closed on the desiccator and the seeds sterilized for at least 24 hr.
Sterilized soybean seeds were then imbibed in ddH2O under sterile conditions at 25° C. for 24 hours before germination test. For germination test, 6-8 imbibed seeds were placed on a 100×25 mm deep Petri dish plate containing 50 ml germination media supplemented with or without auxin herbicide conjugates. 1 L seed germination media contains 3.21 g GAMBORG B-5 basal medium (PhytoTech), 20 g sucrose, 5 g tissue culture agar, and is pH adjusted to 5.7. Media was autoclaved at 121° C. for 25 min and cooled to 60° C. before the addition of auxin conjugates. Germination was carried out in a Percival growth chamber at 25° C. under 18 hr light and 6 hr dark cycle at 90 to 150 μE/m2/s and grown for 10 days.

[2] = system: Arabidopsis ecotype Col-0 plant; assay: Arabidopsis response to spot infiltrated auxins and conjugates; type: in vivo, Arabidopsis thaliana; details: 50, 150, and 500 μM; result in words
Description: The effect of auxin conjugates was assessed using Arabidoposis (Arabidopsis thialiana) ecotype Col-0 plant. Prior to studies utilizing the auxin conjugates, levels of analytical grade (98%+pure) IAA, 2,4-D and dicamba in solution were applied at various concentrations directly to developmentally similar leaves of 20-23 day old Arabidopsis seedlings by needleless syringe spot infiltration methodology, in order to determine range of auxinic response and severity. Phenotypes were documented relative to control at 1 day post-spot infiltration and subsequently every other day, up to nine days post treatment. Three concentrations were chosen based on reproducibility, and conjugated forms were then studied with 4 or more replicate treatments for each, along with appropriate negative controls (H2O and 10% EtOH).
Examples 9 and 10 utilized a spot infiltration method for the delivery of an herbicide directly to leaves of a plant. The method generally allows for the directed delivery of a variety of agents to a localized area of a plant, e.g. localized region of leaves, for screening or assessment purposes, e.g. to quickly assess the response of a plant to the agent. As used in the foregoing examples, the spot infiltration method was used to introduce specific herbicides or specific conjugates of the herbicides to seedling plant leaves. Following introduction of the herbicide or the appropriate conjugate, plants were observed daily for nine days for characteristics of epinasty, trifoliate leaf curly, chlorosis, and new growth recovery.
Briefly, a solution of the desired agent is prepared of the desired agent, e.g. as described above in Example 10, solutions (5% EtOH) of 1, 2.5 and 5 mM IAA. The solution is then drawn into a 1 mL BD™ slip-tip syringe, bulk, non-sterile syringe (e.g. Becton, Dickinson and Company, Product No. 301025) with 100 μL markings. The desired volume is then applied to the leaf, e.g. as described in Examples 9 and 10, with the tip of the syring against the leaf and positive pressure applied to the syringe plunger. Sufficient pressure is applied in order to infuse the area beneath the syringe opening, but not so much pressure as to cause a visible-to-the-eye puncture or hole to form in the leaf. Some run-off of solution around the syringe opening is expected. In the foregoing examples, two spots were applied to each of two leaves per seedling for soybean plants. […] In soybean, both spots per leaf were at the distal portion of the leaf about 1-2 cm apart. When the method was applied to Arabidopsis, two developmentally intermediate aged leaves were chosen per plant, and one spot infiltration was carried out per leaf.
Generally, for Arabidopsis, the two leaves were chosen from opposite sides of rosette. In general, the spot infiltration method is carried out on younger plants in order to minimize experimental footprint and to maintain developmental uniformity. However, the method is not limited to use on young plants and can be easily applied to older plants as determined by the goals of a particular experiment.

Structure (SMILES): O=C(O)COc1ccc(Cl)cc1Cl [2,4-D, 2,4-dichlorophenoxyacetic acid]
- Soybean seed germination and growth [1]: seed germination was arrested
- Phenotype, Arabidopsis [2]: increased auxinic response ranging from mild to more extreme epinasty
